Our source for the MIC and Activity values is ChEMBL document CHEMBL4339249, “Antimicrobial Dolabellanes and Atranones from a Marine-Derived Strain of the Toxigenic Fungus Stachybotrys chartarum” (2019).

The source made the active and inactive calls.

The MIC is the smallest concentration in the dilution series that meets the test's criterion for growth inhibition.

For one assay, the system named is Staphylococcus aureus. The assay can be described thus: Antimicrobial activity against methicillin-resistant Staphylococcus aureus ATCC 43300 assessed as inhibition of microbial growth incubated for 16 hrs by broth microdilution method. In kind it is functional. Conditions: ATCC 43300, 16 h. (In general: In broth dilution the organism is exposed to a series of concentrations in liquid medium.)

In assay [1] the test system is Candida albicans. Put plainly: Antimicrobial activity against Candida albicans ATCC 10231 assessed as inhibition of microbial growth incubated for 16 hrs by broth microdilution method. It counts as functional. Conditions: ATCC 10231, 16 h.
The next assay concerns Klebsiella pneumoniae. The assay can be described thus: Antimicrobial activity against Klebsiella pneumoniae ATCC 700603 assessed as inhibition of microbial growth incubated for 16 hrs by broth microdilution method. It counts as functional. The conditions noted are these: Klebsiella pneumoniae, 700603, 16 h.
A further assay relates to Acinetobacter baumannii. The assay can be described thus: Antimicrobial activity against Acinetobacter baumannii ATCC 19606 assessed as inhibition of microbial growth incubated for 16 hrs by broth microdilution method. The conditions noted are these: ATCC 19606, 16 h. In kind it is functional.
For a further assay, the system named is Pseudomonas aeruginosa. Put plainly: Antimicrobial activity against Pseudomonas aeruginosa ATCC 15442 assessed as inhibition of microbial growth incubated for 16 hrs by broth microdilution method. In kind it is functional. Conditions: ATCC 15442, 16 h.
Another assay deals with Escherichia coli. The assay can be described thus: Antimicrobial activity against ESBL-producing Escherichia coli ATCC 35218 assessed as inhibition of microbial growth incubated for 16 hrs by broth microdilution method. It counts as functional. The conditions noted are these: ATCC 35218, 16 h.
For another assay, the system named is Enterococcus faecalis. Put plainly: Antimicrobial activity against Enterococcus faecalis ATCC 29212 assessed as inhibition of microbial growth incubated for 16 hrs by broth microdilution method. In kind it is functional. Conditions: ATCC 29212, 16 h.
Assay [2] relates to Candida albicans. Put plainly: Induction of morphological changes in Candida albicans ATCC 10231 assessed as induction of cell wall deformation at 16 ug/ml incubated for 12 hrs by transmission electron microscopy. It counts as functional, organism-based.
The subject of assay [3] is Candida albicans. The assay can be described thus: Induction of morphological changes in Candida albicans ATCC 10231 assessed as induction of wrinkled cells at 8 ug/ml incubated for 12 hrs by transmission electron microscopy. In kind it is functional, organism-based.
In assay [4] the test system is Candida albicans. Put plainly: Induction of morphological changes in Candida albicans ATCC 10231 assessed as induction of irregular cell shape at 8 ug/ml incubated for 12 hrs by transmission electron microscopy. In kind it is functional, organism-based.
For assay [5], the system named is Candida albicans. The assay can be described thus: Induction of morphological changes in Candida albicans ATCC 10231 assessed as induction of cell contents leakage at 16 ug/ml incubated for 12 hrs by transmission electron microscopy. In kind it is functional, organism-based.
The test system of assay [6] is Candida albicans. Put plainly: Induction of morphological changes in Candida albicans ATCC 10231 assessed as induction of deformed cells at 8 ug/ml incubated for 12 hrs by transmission electron microscopy. It counts as functional, organism-based.
The subject of assay [7] is Candida albicans. The assay can be described thus: Induction of morphological changes in Candida albicans ATCC 10231 assessed as induction of vacuoles formation in cytoplasm at 16 ug/ml incubated for 12 hrs by transmission electron microscopy. In kind it is functional, organism-based.
Assay [8] concerns Candida albicans. The assay can be described thus: Induction of morphological changes in Candida albicans ATCC 10231 assessed as induction of cell wall thinning at 8 ug/ml incubated for 12 hrs by transmission electron microscopy. It counts as functional, organism-based.
Assay [9] concerns Candida albicans. The assay can be described thus: Induction of morphological changes in Candida albicans ATCC 10231 assessed as induction of cell membrane deformation at 16 ug/ml incubated for 12 hrs by transmission electron microscopy. In kind it is functional, organism-based.
Assay [10] has as its system Candida albicans. The assay can be described thus: Induction of morphological changes in Candida albicans ATCC 10231 assessed as induction of agglutination in cytoplasm at 8 ug/ml incubated for 12 hrs by transmission electron microscopy. In kind it is functional, organism-based.

With `COC(=O)[C@H]1[C@H](C)O[C@@]2(O)[C@H](C)CC[C@@]3(C)OC(=O)C=C(C(C)C)[C@@H]3C[C@H](O)/C(C)=C/[C@H]12`, the MIC in the assay on Staphylococcus aureus, in the assay on Candida albicans [1], in the assay on Klebsiella pneumoniae, with Acinetobacter baumannii, with Pseudomonas aeruginosa and in the assay with Escherichia coli was not below 100 µg/mL in each case. For the same compound, in the assay on Enterococcus faecalis, the MIC is not below 100 µg/mL.

For `C/C1=C\[C@H](O)C[C@]2(C)O[C@H]2C[C@@]2(C)OC(=O)C=C(C(C)C)[C@@H]2CC1`, the MIC was not below 100 µg/mL with Staphylococcus aureus; not below 100 µg/mL with Candida albicans [1]; not below 100 µg/mL in the assay with Klebsiella pneumoniae; 16 µg/mL with Acinetobacter baumannii; not below 100 µg/mL with Pseudomonas aeruginosa; not below 100 µg/mL in the assay with Escherichia coli. In addition, the MIC with Enterococcus faecalis was not below 32 µg/mL.

As for `CN[C@H](CC(C)C)C(=O)N[C@H]1C(=O)N[C@@H](CC(N)=O)C(=O)N[C@H]2C(=O)N[C@H]3C(=O)N[C@H](C(=O)N[C@H](C(=O)O)c4cc(O)cc(O)c4-c4cc3ccc4O)[C@H](O)c3ccc(c(Cl)c3)Oc3cc2cc(c3O[C@@H]2O[C@H](CO)[C@@H](O)[C@H](O)[C@H]2O[C@H]2C[C@](C)(N)[C@H](O)[C@H](C)O2)Oc2ccc(cc2Cl)[C@H]1O` [VANCOMYCIN], the MIC in the assay with Enterococcus faecalis was 0.5 µg/mL.

With `NCC[C@H](O)C(=O)N[C@@H]1C[C@H](N)[C@@H](O[C@H]2O[C@H](CN)[C@@H](O)[C@H](O)[C@H]2O)[C@H](O)[C@H]1O[C@H]1O[C@H](CO)[C@@H](O)[C@H](N)[C@H]1O` [AMIKACIN], the MIC was determined as 8 µg/mL with Klebsiella pneumoniae, 2 µg/mL with Acinetobacter baumannii, 2 µg/mL with Pseudomonas aeruginosa and 4 µg/mL with Escherichia coli.

With `OC(Cn1cncn1)(Cn1cncn1)c1ccc(F)cc1F` [FLUCONAZOLE], the MIC in the assay with Candida albicans [1] came out at 1 µg/mL.

Regarding `C/C1=C\[C@H](O)[C@H](O)C/C(C)=C/[C@@]2(C)OC(=O)C=C(C(C)C)[C@@H]2CC1`, the minimum inhibitory concentration (MIC) in the assay with Staphylococcus aureus, in the assay on Candida albicans [1], in the assay on Klebsiella pneumoniae, with Acinetobacter baumannii, in the assay on Pseudomonas aeruginosa and in the assay with Escherichia coli was not below 100 µg/mL in each case. The MIC with Enterococcus faecalis was not below 100 µg/mL.

Turning to `C/C1=C\[C@H]2/C(=C(/C)CC[C@@]3(CO)C(=O)C=C(C(C)C)[C@@H]3CC1)OC(=O)[C@@H]2[C@H](C)O`, the MIC in the assay with Staphylococcus aureus, in the assay on Candida albicans [1], in the assay with Klebsiella pneumoniae, in the assay on Acinetobacter baumannii, with Pseudomonas aeruginosa and with Escherichia coli was not below 100 µg/mL throughout. Moreover, in the assay with Enterococcus faecalis, the MIC is not below 100 µg/mL.

Turning to `CO/N=C(\C(=O)N[C@@H]1C(=O)N2C(C(=O)O)=C(CSc3nc(=O)c(O)nn3C)CS[C@H]12)c1csc(N)n1` [CEFTRIAXONE], the MIC in the assay with Klebsiella pneumoniae was determined as 2 µg/mL; in the assay with Acinetobacter baumannii, 8 µg/mL; with Pseudomonas aeruginosa it was 2 µg/mL; in the assay with Escherichia coli it was 8 µg/mL.

For the compound `C/C1=C\[C@H](O)C[C@]2(C)O[C@H]2C[C@@]2(C)C(=O)C=C(C(C)C)[C@@H]2CC1`, the MIC in the assay on Staphylococcus aureus, in the assay with Candida albicans [1], in the assay with Klebsiella pneumoniae, in the assay on Acinetobacter baumannii, in the assay on Pseudomonas aeruginosa and with Escherichia coli was not below 100 µg/mL throughout. Also, the MIC with Enterococcus faecalis was not below 100 µg/mL.

Turning to `CC(=O)C[C@H]1/C=C(\C)[C@@H](O)C[C@H]2C(C(C)C)=CC(=O)O[C@]2(C)CC[C@@H](C)C1=O`, the MIC in the assay with Staphylococcus aureus is 32 µg/mL; with Candida albicans [1], 8 µg/mL; in the assay on Klebsiella pneumoniae, not below 100 µg/mL; with Acinetobacter baumannii, not below 100 µg/mL; in the assay with Pseudomonas aeruginosa it was not below 100 µg/mL; with Escherichia coli, not below 100 µg/mL. Besides, in the assay with Enterococcus faecalis, the minimum inhibitory concentration (MIC) was found to be 16 µg/mL. In addition, the result with Candida albicans [2], in the assay with Candida albicans [3], with Candida albicans [4], in the assay on Candida albicans [5], in the assay on Candida albicans [6] and in the assay with Candida albicans [7] was Active. Also, the outcome in the assay on Candida albicans [8], in the assay on Candida albicans [9] and with Candida albicans [10] was Active.
